In article PMC4522657, “Identification of a DYRK1A Inhibitor that Induces Degradation of the Target Kinase using Co-chaperone CDC37 fused with Luciferase nanoKAZ” (Scientific Reports, 2015):

How the values were obtained:
Experiment in all cases: Kinase panel, CaNDY 1 µM
Assay type in all cases: biochemical
Conditions in all cases: CaNDY 1 µM relative to DMSO
MET = biological target: T1, MET (Homo sapiens, UniProt P08581)
T1 construct: purchased Carna Biosciences
Procedure, shortened: (§1)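 Full-length human recombinant kinases, expressed in baculovirus as N-terminal GST fusions and glutathione-purified, were run in an off-chip mobility shift assay. Reactions contained 1% DMSO and ran one hour at room temperature. Inhibition was taken from the product/(product + substrate) ratio against a compound-free control.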

JNK3 = biological target: T2, JNK3 (Homo sapiens, UniProt P53779)
T2 construct: purchased Carna Biosciences
Procedure, shortened: as §1

PDGFRα(V561D) = biological target: T3, PDGFRα(V561D) (Homo sapiens, UniProt P16234, V561D)
T3 construct: purchased Carna Biosciences
Procedure, shortened: as §1

DLK_Cascade = biological target: T4, DLK_Cascade (Homo sapiens, UniProt Q12852)
T4 construct: purchased Carna Biosciences
Procedure, shortened: as §1

COT_Cascade = biological target: T5, COT_Cascade (Homo sapiens, UniProt P41279)
T5 construct: purchased Carna Biosciences
Procedure, shortened: as §1

FAK = biological target: T6, FAK (Homo sapiens, UniProt Q05397)
T6 construct: purchased Carna Biosciences
Procedure, shortened: as §1

EPHA4 = biological target: T7, EPHA4 (Homo sapiens, UniProt P54764)
T7 construct: purchased Carna Biosciences
Procedure, shortened: as §1

CLK3 = biological target: T8, CLK3 (Homo sapiens, UniProt P49761)
T8 construct: purchased Carna Biosciences
Procedure, shortened: as §1

QIK = biological target: T9, QIK (Homo sapiens, UniProt Q9H0K1)
T9 construct: purchased Carna Biosciences
Procedure, shortened: as §1

PDGFRβ = biological target: T10, PDGFRβ (Homo sapiens, UniProt P09619)
T10 construct: purchased Carna Biosciences
Procedure, shortened: as §1

MRCKβ = biological target: T11, MRCKβ (Homo sapiens, UniProt Q9Y5S2)
T11 construct: purchased Carna Biosciences
Procedure, shortened: as §1

MUSK = biological target: T12, MUSK (Homo sapiens, UniProt O15146)
T12 construct: purchased Carna Biosciences
Procedure, shortened: as §1

FMS = biological target: T13, FMS (Homo sapiens, UniProt P07333)
T13 construct: purchased Carna Biosciences
Procedure, shortened: as §1

PAK2 = biological target: T14, PAK2 (Homo sapiens, UniProt Q13177)
T14 construct: purchased Carna Biosciences
Procedure, shortened: as §1

SGK2 = biological target: T15, SGK2 (Homo sapiens, UniProt Q9HBY8)
T15 construct: purchased Carna Biosciences
Procedure, shortened: as §1

DDR2 = biological target: T16, DDR2 (Homo sapiens, UniProt Q16832)
T16 construct: purchased Carna Biosciences
Procedure, shortened: as §1

AMPKα1/β1/γ1 = biological target: T17, AMPKα1/β1/γ1 (Homo sapiens, UniProt Q13131)
T17 construct: purchased Carna Biosciences
Procedure, shortened: as §1

FLT3 = biological target: T18, FLT3 (Homo sapiens, UniProt P36888)
T18 construct: purchased Carna Biosciences
Procedure, shortened: as §1

MST4 = biological target: T19, MST4 (Homo sapiens, UniProt Q9P289)
T19 construct: purchased Carna Biosciences
Procedure, shortened: as §1

ALK(R1275Q) = biological target: T20, ALK(R1275Q) (Homo sapiens, UniProt Q9UM73, R1275Q)
T20 construct: purchased Carna Biosciences
Procedure, shortened: as §1

FGFR3(K650M) = biological target: T21, FGFR3(K650M) (Homo sapiens, UniProt P22607, K650M)
T21 construct: purchased Carna Biosciences
Procedure, shortened: as §1

CK1γ1 = biological target: T22, CK1γ1 (Homo sapiens, UniProt Q9HCP0)
T22 construct: purchased Carna Biosciences
Procedure, shortened: as §1

EPHA1 = biological target: T23, EPHA1 (Homo sapiens, UniProt P21709)
T23 construct: purchased Carna Biosciences
Procedure, shortened: as §1

YES = biological target: T24, YES (Homo sapiens, UniProt P07947)
T24 construct: purchased Carna Biosciences
Procedure, shortened: as §1

CDC2/CycB1 = biological target: T25, CDC2/CycB1 (Homo sapiens, UniProt P06493)
T25 construct: purchased Carna Biosciences
Procedure, shortened: as §1

PKCζ = biological target: T26, PKCζ (Homo sapiens, UniProt Q05513)
T26 construct: purchased Carna Biosciences
Procedure, shortened: as §1

RSK2 = biological target: T27, RSK2 (Homo sapiens, UniProt P51812)
T27 construct: purchased Carna Biosciences
Procedure, shortened: as §1

CaMK2α = biological target: T28, CaMK2α (Homo sapiens, UniProt Q9UQM7)
T28 construct: purchased Carna Biosciences
Procedure, shortened: as §1

MSK2 = biological target: T29, MSK2 (Homo sapiens, UniProt O75676)
T29 construct: purchased Carna Biosciences
Procedure, shortened: as §1

ABL(E255K) = biological target: T30, ABL(E255K) (Homo sapiens, UniProt P00519, E255K)
T30 construct: purchased Carna Biosciences
Procedure, shortened: as §1

MLK3_Cascade = biological target: T31, MLK3_Cascade (Homo sapiens, UniProt Q16584)
T31 construct: purchased Carna Biosciences
Procedure, shortened: as §1

CK1γ3 = biological target: T32, CK1γ3 (Homo sapiens, UniProt Q9Y6M4)
T32 construct: purchased Carna Biosciences
Procedure, shortened: as §1

BRSK1 = biological target: T33, BRSK1 (Homo sapiens, UniProt Q8TDC3)
T33 construct: purchased Carna Biosciences
Procedure, shortened: as §1

NEK6 = biological target: T34, NEK6 (Homo sapiens, UniProt Q9HC98)
T34 construct: purchased Carna Biosciences
Procedure, shortened: as §1

PASK = biological target: T35, PASK (Homo sapiens, UniProt Q96RG2)
T35 construct: purchased Carna Biosciences
Procedure, shortened: as §1

JAK3 = biological target: T36, JAK3 (Homo sapiens, UniProt P52333)
T36 construct: purchased Carna Biosciences
Procedure, shortened: as §1

T2 sequence (P53779 whole entry): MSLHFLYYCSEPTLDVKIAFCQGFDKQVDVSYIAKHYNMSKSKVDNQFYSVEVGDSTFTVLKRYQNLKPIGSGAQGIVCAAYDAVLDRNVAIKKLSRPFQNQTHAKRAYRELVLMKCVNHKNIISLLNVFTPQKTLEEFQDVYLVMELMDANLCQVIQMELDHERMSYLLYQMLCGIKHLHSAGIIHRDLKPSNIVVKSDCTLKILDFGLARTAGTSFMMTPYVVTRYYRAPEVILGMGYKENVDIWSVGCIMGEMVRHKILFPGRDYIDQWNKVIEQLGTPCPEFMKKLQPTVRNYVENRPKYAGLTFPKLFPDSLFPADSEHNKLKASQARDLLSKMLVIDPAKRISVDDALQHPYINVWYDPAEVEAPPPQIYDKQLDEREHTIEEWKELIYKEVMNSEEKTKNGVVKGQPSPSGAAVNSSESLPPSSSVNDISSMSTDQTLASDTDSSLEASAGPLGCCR
T14 sequence (Q13177 whole entry): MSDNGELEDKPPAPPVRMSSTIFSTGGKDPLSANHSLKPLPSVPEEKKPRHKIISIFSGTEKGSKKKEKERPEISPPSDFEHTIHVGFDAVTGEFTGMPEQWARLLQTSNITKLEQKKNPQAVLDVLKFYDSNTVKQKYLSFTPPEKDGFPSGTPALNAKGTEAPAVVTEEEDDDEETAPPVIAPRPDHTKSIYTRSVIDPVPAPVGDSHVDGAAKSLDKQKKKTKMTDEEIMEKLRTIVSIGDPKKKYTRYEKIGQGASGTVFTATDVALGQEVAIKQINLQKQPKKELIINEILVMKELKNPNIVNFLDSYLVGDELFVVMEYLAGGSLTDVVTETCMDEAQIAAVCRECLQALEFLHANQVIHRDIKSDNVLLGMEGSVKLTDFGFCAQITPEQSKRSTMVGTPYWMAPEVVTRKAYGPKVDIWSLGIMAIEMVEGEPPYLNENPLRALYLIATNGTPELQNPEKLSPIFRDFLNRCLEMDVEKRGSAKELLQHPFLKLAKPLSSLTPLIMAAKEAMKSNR
T7 sequence (P54764 20-986): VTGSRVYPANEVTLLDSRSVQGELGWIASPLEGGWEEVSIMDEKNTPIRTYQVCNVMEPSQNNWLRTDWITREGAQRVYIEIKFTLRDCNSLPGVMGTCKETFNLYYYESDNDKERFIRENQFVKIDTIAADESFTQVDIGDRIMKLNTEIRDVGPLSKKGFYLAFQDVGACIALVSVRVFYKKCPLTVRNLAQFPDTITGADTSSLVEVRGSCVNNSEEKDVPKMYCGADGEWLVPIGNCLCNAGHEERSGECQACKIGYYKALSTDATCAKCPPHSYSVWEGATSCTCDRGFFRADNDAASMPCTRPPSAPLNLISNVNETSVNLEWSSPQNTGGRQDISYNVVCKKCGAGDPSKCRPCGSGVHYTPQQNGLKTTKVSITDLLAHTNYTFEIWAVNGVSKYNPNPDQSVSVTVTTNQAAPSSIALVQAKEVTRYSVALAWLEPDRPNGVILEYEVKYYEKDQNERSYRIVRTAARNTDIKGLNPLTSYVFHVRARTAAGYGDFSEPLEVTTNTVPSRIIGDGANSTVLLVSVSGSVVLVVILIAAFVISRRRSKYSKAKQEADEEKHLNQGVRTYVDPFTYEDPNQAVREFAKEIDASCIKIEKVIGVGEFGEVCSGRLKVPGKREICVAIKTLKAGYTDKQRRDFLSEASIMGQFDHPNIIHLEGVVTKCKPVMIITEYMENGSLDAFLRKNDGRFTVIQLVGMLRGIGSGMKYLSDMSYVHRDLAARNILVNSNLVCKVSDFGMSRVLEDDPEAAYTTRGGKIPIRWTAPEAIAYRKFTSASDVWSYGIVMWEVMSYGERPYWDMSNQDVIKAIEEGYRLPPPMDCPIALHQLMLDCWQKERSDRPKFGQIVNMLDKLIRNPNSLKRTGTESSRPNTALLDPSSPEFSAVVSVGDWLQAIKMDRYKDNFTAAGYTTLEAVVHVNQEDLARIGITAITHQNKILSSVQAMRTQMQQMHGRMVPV
T9 sequence (Q9H0K1 whole entry): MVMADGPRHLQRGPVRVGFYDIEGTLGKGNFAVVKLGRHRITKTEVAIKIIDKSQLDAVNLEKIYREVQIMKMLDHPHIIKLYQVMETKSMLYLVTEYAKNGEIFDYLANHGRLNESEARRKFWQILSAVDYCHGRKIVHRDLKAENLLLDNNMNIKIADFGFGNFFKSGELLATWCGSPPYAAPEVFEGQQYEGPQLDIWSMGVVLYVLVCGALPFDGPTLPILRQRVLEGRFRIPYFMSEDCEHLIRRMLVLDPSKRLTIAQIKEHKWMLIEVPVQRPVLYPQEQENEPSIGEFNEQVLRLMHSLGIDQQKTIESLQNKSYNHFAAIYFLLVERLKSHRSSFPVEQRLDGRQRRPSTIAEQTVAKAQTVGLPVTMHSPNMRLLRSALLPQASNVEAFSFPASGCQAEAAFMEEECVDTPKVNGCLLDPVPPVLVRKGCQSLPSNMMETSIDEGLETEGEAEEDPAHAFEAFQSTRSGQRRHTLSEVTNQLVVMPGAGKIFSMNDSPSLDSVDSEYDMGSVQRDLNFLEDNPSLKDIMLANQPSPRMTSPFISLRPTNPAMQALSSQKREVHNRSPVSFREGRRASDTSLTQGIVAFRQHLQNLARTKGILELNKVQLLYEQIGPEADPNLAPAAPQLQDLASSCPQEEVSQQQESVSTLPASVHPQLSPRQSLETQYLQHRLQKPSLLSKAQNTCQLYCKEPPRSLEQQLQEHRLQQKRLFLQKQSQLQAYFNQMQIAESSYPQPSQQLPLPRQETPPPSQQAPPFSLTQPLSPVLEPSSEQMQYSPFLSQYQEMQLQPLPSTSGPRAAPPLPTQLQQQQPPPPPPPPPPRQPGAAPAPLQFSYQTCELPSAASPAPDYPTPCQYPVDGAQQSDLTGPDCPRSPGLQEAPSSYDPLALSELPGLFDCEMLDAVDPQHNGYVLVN
T4 sequence (Q12852 whole entry): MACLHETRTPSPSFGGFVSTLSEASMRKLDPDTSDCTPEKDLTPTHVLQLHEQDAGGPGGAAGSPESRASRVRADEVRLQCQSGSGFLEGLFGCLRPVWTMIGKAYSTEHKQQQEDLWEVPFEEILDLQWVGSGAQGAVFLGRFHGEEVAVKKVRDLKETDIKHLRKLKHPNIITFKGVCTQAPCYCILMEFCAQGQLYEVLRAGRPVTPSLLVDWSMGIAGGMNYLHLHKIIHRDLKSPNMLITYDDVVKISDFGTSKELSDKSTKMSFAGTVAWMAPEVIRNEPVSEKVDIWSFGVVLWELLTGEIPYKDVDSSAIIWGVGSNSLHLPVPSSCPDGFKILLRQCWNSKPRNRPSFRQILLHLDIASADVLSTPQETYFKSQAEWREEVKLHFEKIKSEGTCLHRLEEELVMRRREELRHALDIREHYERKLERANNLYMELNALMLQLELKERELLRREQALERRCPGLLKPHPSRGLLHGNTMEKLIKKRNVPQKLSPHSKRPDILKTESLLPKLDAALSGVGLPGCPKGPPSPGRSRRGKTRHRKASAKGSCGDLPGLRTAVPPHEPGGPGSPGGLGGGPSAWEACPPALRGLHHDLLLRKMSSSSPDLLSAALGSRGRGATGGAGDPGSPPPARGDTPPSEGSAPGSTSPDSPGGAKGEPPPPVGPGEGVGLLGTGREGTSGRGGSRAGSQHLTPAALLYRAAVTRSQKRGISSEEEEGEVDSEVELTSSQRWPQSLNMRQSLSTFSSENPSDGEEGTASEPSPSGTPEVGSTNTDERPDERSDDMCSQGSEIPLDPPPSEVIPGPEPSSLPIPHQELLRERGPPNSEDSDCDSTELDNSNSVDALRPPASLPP
T6 sequence (Q05397 whole entry): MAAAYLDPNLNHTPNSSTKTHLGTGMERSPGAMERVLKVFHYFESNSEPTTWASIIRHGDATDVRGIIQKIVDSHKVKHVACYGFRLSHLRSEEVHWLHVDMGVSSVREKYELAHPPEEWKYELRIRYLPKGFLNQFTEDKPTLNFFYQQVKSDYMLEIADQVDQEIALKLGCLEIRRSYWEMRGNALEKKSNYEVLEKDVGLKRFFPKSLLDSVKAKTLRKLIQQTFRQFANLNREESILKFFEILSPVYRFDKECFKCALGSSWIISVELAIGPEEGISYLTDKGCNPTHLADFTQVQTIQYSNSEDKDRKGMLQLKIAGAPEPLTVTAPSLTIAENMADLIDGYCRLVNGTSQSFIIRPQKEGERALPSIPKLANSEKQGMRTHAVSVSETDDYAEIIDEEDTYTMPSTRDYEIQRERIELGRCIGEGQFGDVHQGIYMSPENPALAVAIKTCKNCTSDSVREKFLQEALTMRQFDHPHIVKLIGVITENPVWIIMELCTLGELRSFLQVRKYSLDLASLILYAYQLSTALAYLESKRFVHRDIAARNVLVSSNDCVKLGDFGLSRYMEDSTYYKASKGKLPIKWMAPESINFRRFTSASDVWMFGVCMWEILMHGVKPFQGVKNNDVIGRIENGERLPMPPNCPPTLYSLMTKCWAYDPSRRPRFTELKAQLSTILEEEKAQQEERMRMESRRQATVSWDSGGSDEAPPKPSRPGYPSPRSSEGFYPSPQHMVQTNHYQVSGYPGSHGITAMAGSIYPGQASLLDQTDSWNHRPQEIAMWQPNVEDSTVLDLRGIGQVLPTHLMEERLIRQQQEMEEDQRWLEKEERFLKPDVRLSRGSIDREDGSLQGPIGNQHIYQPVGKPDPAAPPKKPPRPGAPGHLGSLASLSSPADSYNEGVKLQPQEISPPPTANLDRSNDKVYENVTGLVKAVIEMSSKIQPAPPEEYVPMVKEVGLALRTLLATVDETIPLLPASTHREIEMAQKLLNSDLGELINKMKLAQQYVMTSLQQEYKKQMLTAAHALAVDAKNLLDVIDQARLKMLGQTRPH

## [H]/N=C1/NC(=O)C(=Cc2ccc3c(c2)CCO3)S1 [CaNDY, (Z)-5-[(2,3-dihydrobenzofuran-5-yl)methylene]-2-iminothiazolidin-4-one]
MET
  %Activity: 97.7%
JNK3
  %Activity: 100.8%
PDGFRα(V561D)
  remaining activity at 1 µM: 90.3%
DLK_Cascade
  %Activity: 102.6%
COT_Cascade
  remaining activity at 1 µM: 72.9%
FAK
  remaining activity at 1 µM: 98.5%
EPHA4
  remaining activity at 1 µM: 102%
CLK3
  %Activity: 16.5%
QIK
  remaining activity at 1 µM: 99.5%
PDGFRβ
  remaining activity at 1 µM: 91.7%
MRCKβ
  remaining activity at 1 µM: 82.5%
MUSK
  remaining activity at 1 µM: 98.4%
FMS
  remaining activity at 1 µM: 101%
PAK2
  remaining activity at 1 µM: 101%
SGK2
  remaining activity at 1 µM: 88.6%
DDR2
  remaining activity at 1 µM: 101%
AMPKα1/β1/γ1
  remaining activity at 1 µM: 91.9%
FLT3
  remaining activity at 1 µM: 101%
MST4
  remaining activity at 1 µM: 103%
ALK(R1275Q)
  remaining activity at 1 µM: 98.5%
FGFR3(K650M)
  remaining activity at 1 µM: 101%
CK1γ1
  %Activity: 83.4%
EPHA1
  remaining activity at 1 µM: 95.5%
YES
  remaining activity at 1 µM: 101%
CDC2/CycB1
  remaining activity at 1 µM: 65.7%
PKCζ
  remaining activity at 1 µM: 95.9%
RSK2
  remaining activity at 1 µM: 91.1%
CaMK2α
  remaining activity at 1 µM: 104%
MSK2
  remaining activity at 1 µM: 98.3%
ABL(E255K)
  remaining activity at 1 µM: 104%
MLK3_Cascade
  %Activity: 100.9%
CK1γ3
  %Activity: 79.0%
BRSK1
  remaining activity at 1 µM: 97.3%
NEK6
  remaining activity at 1 µM: 96.1%
PASK
  remaining activity at 1 µM: 65.1%
JAK3
  remaining activity at 1 µM: 94.2%
